In patent publication US6376552B1, “Treatment of gallstones” (Knoll Pharmaceutical Company, priority 1999, dated 2002) one finds development of gallstones data, which are given here for one compound.

This assay relates to gallstones. The experiment in a line: administration to a patient during weight loss, development of gallstones. As to conditions: 10 mg orally once daily in the morning while patient is losing weight. The class given is in vivo, human. The procedure: Sibutramine 10 mg orally once daily is administered in the morning during the time a patient is losing weight.

SMILES strings stand for the structures.

As to `CC(C)CC(N(C)C)C1(c2ccc(Cl)cc2)CCC1` (stereo not shown) [Sibutramine, N,N-dimethyl-1-[1-(4-chlorophenyl)cyclobutyl]-3-methylbutylamine], the development of gallstones entry was “does not develop gallstones”.
